Test results published in US10064843B2, “Bis-amide derivative and use thereof” (University-Industry Cooperation Group of Kyung Hee …, priority 2013, dated 2018).

Columns and labels:
in vitro [1] = format: cell-based, hepatitis C virus; conditions: genotype 1b Con1b; FIG. 11a
Experimental: (§1) The effect of WJCPA-126 was determined in percentage of fluorescent cells in each image using sub-genotype 1b replicated cells. EC50 and CC50 were determined via nonlinear regression analysis using GraphPad Prism (GraphPad Software). The GFP expression level was quantitated and shown in the left panel. The images of GFP at the level of replicated cells were obtained while increasing the concentration of WJCPA-126 and are shown on the right panel.

[2] = tested on: genotype 1b (Con1b) replication cells; assay: microbe, parasite or virus in culture; format: cell-based, hepatitis C virus; conditions: Hepatitis C virus
Experimental: as §1

NFAT1 = assay: NFAT dephosphorylation by western blot and immunofluorescence; format: cell-based, mouse
Experimental: Upon stimulation, the cells were washed with sterile PBS, suspended in lysis buffer (Invitrogen, Carlsbad, Calif., USA), incubated on ice for 10 minutes, and centrifuged at 19,000 g for 15 minutes. The phosphorylation state of the NFAT protein in the supernatant was confirmed by western blot analysis using monoclonal anti-NFATc 1. For the confirmation of NFAT1 localization using a confocal microscope, the cells were washed and then fixed by treating with 3.7% formaldehyde at room temperature for 20 minutes. […] Upon incubation, the cells were washed twice with PBS and incubated in a dark room at room temperature with secondary antibody, which was conjugated with Alexa 546 (Invitrogen, Carlsbad, Calif., USA) diluted in PBS containing 3% BSA at a 1:200 ratio, for 2 hours. […] Finally, the cells were washed once with PBS and mounted onto glass slides using a coverslip and a mounting solution (Vector Mount, Calif., USA). The images were captured via Zeiss confocal laser scanning microscope (Zeiss, Germany).

IL-2 production = assay: IL-2 concentration by ELISA in splenocytes; format: cell-based, mouse; conditions: up to 10 μM; FIG. 9c
Experimental: Upon incubation, the cultures from three different wells were collected and IL-2 concentration was analyzed by ELISA according to the protocol by Enzo life Science (Plymouth Meeting, Pa., USA). IL-2 concentration was calculated based on the IL-2 standard solution.

CypB = target: T1, CypB (Homo sapiens, UniProt P23284); assay: SPR binding of WJCPA-126 to CypB; conditions: SPR-based kinetic analysis
T1 construct: GST (N); made in house; host or cells: E. coli (pGEX-KG)
T1 sequence (P23284 34-216, species assumed): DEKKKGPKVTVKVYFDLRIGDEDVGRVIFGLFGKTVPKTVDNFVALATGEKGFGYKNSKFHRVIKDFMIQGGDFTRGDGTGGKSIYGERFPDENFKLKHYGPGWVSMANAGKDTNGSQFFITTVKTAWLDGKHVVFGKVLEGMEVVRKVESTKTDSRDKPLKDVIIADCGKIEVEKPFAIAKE

IFN-α = IFN-α mRNA and IFN-α ELISA in HCV replicon cell; format: cell-based, human
Experimental: Example 11: Determination of IL-8 and INF-α Concentrations in Cell Culture Media by ELISA
Upon incubation, the cell culture media were collected and the IL-8 and IFN-α concentrations were analyzed according to the protocol of eBioscience (San Diego, Calif., USA) by ELISA.
Example 19: Real-Time Quantitative Reverse Transcriptase PCR Analysis
Real-time quantitative reverse transcriptase PCR (qRT-PCR) was performed using SYBR Green PCR Master Mix (Invitrogen/Applied Biosystem, Carlsbad, Calif., USA) and ABI Prism 7300 Real-time PCR System (Applied Biosystems, Carlsbad, Calif., USA) according to the manufacturer's instructions. Calculations were performed based on […] method using the following equation: R (ratio)=2-[ΔCT (sample)-ΔCT (control group)]. The data were expressed as fold change of the treated group relative to the control group and standardized relative to the glyceraldehyde 3-phosphate dehydrogenase (GAPDH) level.

HCV replicon cells [3] = assay: Western blot of NS5A and NS5B in HCV replicon cells (total lysate, membrane fraction); format: cell-based, hepatitis C virus
Experimental: Example 10: Preparation of a Membrane Fraction
Cells grown to about 80% confluence in a culture dish with a diameter of 10 cm were scraped using PBS. The cells were pelleted by centrifugation at 220 g for 10 minutes. The pellet was resuspended in 1 mL hypotonic buffer (10 mM Tris-HCL pH 7.5, 10 mM KCL, 1.5 mM MgCl2, 0.5 mM PMSF (phenylmethylsulfonyl fluoride), and 2 μg/mL leupeptin), and incubated at 4° C. for 10 minutes. The suspension was homogenized using 75 strokes of a glass dounce homogenizer using a tight-fitting pestle (Sigma, St. Louis, Mo., USA). Nuclei and undestroyed cells were removed by centrifugation at 220 g for 10 minutes at 4° C. The cell membrane in the thus-obtained supernatant was directly centrifuged at 68,000 g for 1 hour at 4° C. using an ultracentrifuge tube in a micro-ultracentrifuge (Hitachi, Japan). Upon centrifugation, the coarse replication complex fraction was recovered from the pellet and used for western blot analysis.
Example 14: Western Blot Analysis
Cell extracts were separated by SDS-PAGE and then transferred to a nitrocellulose membrane. After blocking, the membrane was incubated with indicated primary antibody and subsequently incubated with secondary antibody. The samples were detected with enhanced chemiluminescence reagents (Santa Cruz, Calif., USA).

in vitro [4] = format: cell-based, hepatitis C virus; conditions: genotype 2a JFH1; FIG. 11b
[5] = tested on: genotype 2a (JFH1) replication cells; assay: microbe, parasite or virus in culture; format: cell-based, hepatitis C virus; conditions: Hepatitis C virus
calcineurin = assay: Calcineurin phosphorylase analysis in splenocytes; format: cell-based, mouse; conditions: FIG. 8b
Experimental: Example 6: Analysis of Calcineurin Phosphorylase
Dephosphorylation of RH phosphopeptide was measured using calcineurin cell activity assay kit (Enzo Life sciences, Plymouth Meeting, Pa., USA) to determine calcium-dependent activity of calcineurin. Splenocytes (2×10^6/well) were incubated along with or WJCPA-126 for 20 hours, and further untreated or stimulated with 1 μg/mL of ionomycin (Calibiochem, La Jolla, Calif., USA). Then, the cells were used for the measurement of calcineurin activity.

HCV replicon cells [6] = assay: Luciferase activity in HCV replicon cells; format: cell-based; conditions: Hepatitis C virus, 72 h, read-out: inhibition of luciferase activity of HCV
Experimental: Additionally, a series of compounds (WJCPA-1 to WJCPA-135) having the bis-amide structure as a parent structure in common, based on the inhibitory effect of WJCPA-126 against the PPIase activity, were synthesized and their activities were confirmed. Specifically, Huh7-rep cells were treated with each of the compounds at a concentration of 2 μM for 3 days, and the expression level of NS5A was confirmed by performing an immunoblot analysis according to a known method (FIG. 5). The 32 kinds of compounds confirmed to have excellent inhibitory effect especially against the NS5A expression from the immunoblot experiment were measured regarding their inhibitory effect against luciferase activity and the results are illustrated in FIG. 6. In the same manner as in western blot, the HCV replicon cells were treated with each of the compounds at a concentration of 2 μM and incubated for 72 hours, and the total cell lysate of the cultured cells were used for the analyses of western blot and the activity of luciferase.

SMILES: COc1cc(C(C(=O)NC2CCCCC2)N(C(=O)Cc2c[nH]c3ccccc23)c2ccc(C(C)C)cc2)cc(OC)c1OC (centres unmarked) [WJCPA-126, N-cyclohexyl-2-[(2-1H-indol-3-yl-acetyl)-(4-isopropyl-phenyl)-amino]-2-(3,4,5-trimethoxy-phenyl)-acetamide]
- CC50 (in vitro [1]): 12400 ± 2100 nM
- EC50 [2]: 730 ± 100 nM
- NFAT1 migration into the nucleus (NFAT1; ionomycin stimulation, FIG. 9b): significant localization of NFAT1 within the nucleus
- phosphorylation state of NFAT1 (NFAT1; ionomycin-stimulated, FIG. 9a): maintained the dephosphorylated state of NFAT1
- ionomycin-induced IL-2 production (IL-2 production): did not show any inhibitory activity
- Kd (CypB): 2100 nM
- mRNA level of IFN-α (IFN-α; 48 hours after the treatment, FIG. 15d): cannot control the mRNA level of IFN-α
- IFN-α production (ELISA) (IFN-α; FIG. 15e): significantly increase the IFN-α production
- levels of NS5A and NS5B proteins (HCV replicon cells [3]; 0.5 μM to 4 μM, FIG. 10a): decrease in the levels of NS5A and NS5B proteins in a dose-dependent manner
- NS5A and NS5B protein levels in total lysate and membrane fraction (HCV replicon cells [3]; 2 μM, HCV Con1b replicon cells, FIG. 10b): decrease the protein levels of NS5A and NS5B in both the total lysate and the membrane fraction
- CC50 (in vitro [4]): 22300 ± 4230 nM
- EC50 [5]: 1100 ± 50 nM
- effect on ionomycin-stimulated calcineurin phosphorylase activity (calcineurin): no inhibitory effect
- inhibition at 2 µM (HCV replicon cells [6]): ≤ 80%
